Measured values taken from patent publication US11859248B2, “Nucleic acid modification and identification method” (IMBA—INSTITUT FÜR MOLEKULARE BIOTECHNOLOGIE GMBH, priority 2017, dated 2024).

Tests used:
[1] = test system: reverse transcriptases (Superscript II, Superscript III, Quant-seq RT); assay: Reverse transcription of synthetic thiol-nucleotide-containing RNA followed by high-throughput sequencing; format: biochemical; conditions: after iodoacetamide-treatment
Protocol: Primer extension assays were essentially performed as described previously by Nilsen et al. (Cold Spring Harb Protoc. 2013, 1182-1185). Briefly, template RNA oligonucleotides (5L-let-7-3L or 5L-let-7-s^4Up9-3L; Dharmacon; see Table for sequences) were deprotected according to the instructions of the manufacturer and purified by denaturing polyacrylamide gel-elution. 100 μM purified RNA oligonucleotides were treated with 10 mM iodoacetamide (+IAA) or EtOH (−IAA) in standard reaction conditions (50% DMSO, 50 mM sodiumphosphate buffer, pH 8) for 15 min at 50° C. The reaction was stopped by addition of 20 mM DTT, followed by ethanol precipitation. RT primer (see Table for sequence) was 5′ radiolabeled using γ-^32P-ATP (Perkin-Elmer) and T4-polynucleotide kinase (NEB), followed by denaturing polyacrylamide gel-purification. 640 nM γ-^32P-RT primer was annealed to 400 nM 5L-let-7-3L or 5L-let-7-s^4Up9-3L in 2× annealing buffer (500 mM KCl, 50 mM Tris pH 8.3) in a PCR machine (3 min 95° C., 30 sec 85° C. Ramp 0.5° C./s, 5 min 25° C. Ramp 0.1° C./s). Reverse transcription was performed using Superscript II (Invitrogen), Superscript III (Invitrogen), or Quant-seq RT (Lexogen) as recommended by the manufacturer. For dideoxynucleotide reactions, a final concentration of 500 μM ddNTP (as indicated) was added to RT reactions. Upon completion, RT reactions were resuspended in formamide loading buffer (Gel loading buffer II, Thermo Fisher Scientific) and subjected to 12.5% denaturing polyacrylamide gel electrophoresis. Gels were dried, exposed to storage phosphor screen (PerkinElmer), imaged on a Typhoon TRIO variable mode imager (Amersham Biosciences), and quantified using ImageQuant TL v7.0 (GE Healthcare). […]
For sequencing analysis of synthetic RNA samples (FIG. 5) barcoded libraries were demultiplexed using Picard Tools BamIndexDecoder v1.13 allowing 0 mismatches in the barcode. […] Remaining aligned reads were converted to pileup format. […] Output table was analyzed and plotted in Excel v15.22 (Microsoft) and Prism v7.0a (GraphPad). […]

Drosophila S2 cells = assay: HPLC analysis of s^4U-incorporation into total RNA of Drosophila S2 cells; format: cell-based, Drosophila melanogaster; conditions: 500 μM s^4U, 24 h
Protocol: Analysis of s^4U- or s^6G-incorporation into total RNA following metabolic labeling was performed as previously described by Spitzer et al. (Meth Enzymol. 539, 113-161 (2014)).
Upon generating libraries from size-selected total RNA of Drosophila S2 cells after s^4U metabolic labeling for 24 hours, we observed a strong accumulation of T>C conversions when compared to libraries prepared from unlabeled cells, as exemplified for the miR-184 locus, which gives rise to an abundantly expressed microRNA, miR-184-3p, and its less abundant miR*, miR-184-5p (FIG. 12A). In order to confirm this observation at the genomic scale, we aligned reads to annotated microRNA loci in the Drosophila genome and inspected the frequency of any given mutation normalized to overall T-content per miRNA (FIG. 12B). In the absence of s^4U metabolic labeling, we observed a median mutation rate of less than 0.1% for any given mutation, a rate that is consistent with Illumina-reported sequencing error rates. (Note, that iodoacetamide treatment of unlabeled total RNA had no detectable impact on small RNA abundance and mutation rate, as determined by high-throughput sequencing. See FIG. 19). […]

Compound: O=c1[nH]c(=S)ccn1[C@@H]1O[C@H](CO)[C@@H](O)[C@H]1O [s^4U, 4-thiouridine]
- increase in T to C conversion [1]: 8.5 fold
- mutation rate (T to C) ([1]; all tested RTs): more than 0.94
- labeling efficiency in total RNA (Drosophila S2 cells): 2.3%
